The target of one assay is T1, human recombinant HDAC1 (Homo sapiens, UniProt Q13547).
T1 construct: purchased Enzo Life Science BML-SE456
The experiment in a line: HDAC1 enzyme activity inhibition assay (HDAC Fluorimetric Drug Discovery Kit). In kind it is biochemical. Conditions: human recombinant HDAC1, 10 μM substrate, 30° C. 60 minutes. The method, then:
(§1) In order to examine the HDAC6 selectivity of the compounds of formula I of the present invention by HDAC1 and HDAC6 enzymatic activity inhibition assays, an experiment was performed using a conventional substance as a control.
(§2) HDAC enzyme activity was measured using a HDAC Fluorimetric Drug Discovery Kit (BML-AK511, 516, Enzo Life Science). For the HDAC1 enzyme activity test, human recombinant HDAC1 (BML-SE456) was used as an enzyme source, and Fluor de Lys®-“SIRT1 (BNL-KI177) was used as a substrate. A 5-fold dilution of the compound was seeded into a 96-well plate, and then 0.3 μg of the enzyme and 10 μM of the substrate were added to each well of the plate and allowed to react at 30° C. for 60 minutes. Then, Fluor de Lys®-Developer II (BML-KI176) was added thereto and allowed to react for 30 minutes, after which the fluorescence value (Ex 360, Em 460) was measured using a multi-plate reader (Flexstation 3, Molecular Device). The HDAC6 enzyme was tested using human recombinant HDAC6 (382180) (Calbiochem) according to the same protocol as the HDAC1 enzyme activity test method. Based on the resulting values, each IC50 value was calculated using GraphPad Prism4.0 program.

The next assay addresses T2, human recombinant HDAC6 (Homo sapiens, UniProt Q9UBN7).
T2 construct: purchased Calbiochem 382180
T2 sequence (Q9UBN7 1-1215): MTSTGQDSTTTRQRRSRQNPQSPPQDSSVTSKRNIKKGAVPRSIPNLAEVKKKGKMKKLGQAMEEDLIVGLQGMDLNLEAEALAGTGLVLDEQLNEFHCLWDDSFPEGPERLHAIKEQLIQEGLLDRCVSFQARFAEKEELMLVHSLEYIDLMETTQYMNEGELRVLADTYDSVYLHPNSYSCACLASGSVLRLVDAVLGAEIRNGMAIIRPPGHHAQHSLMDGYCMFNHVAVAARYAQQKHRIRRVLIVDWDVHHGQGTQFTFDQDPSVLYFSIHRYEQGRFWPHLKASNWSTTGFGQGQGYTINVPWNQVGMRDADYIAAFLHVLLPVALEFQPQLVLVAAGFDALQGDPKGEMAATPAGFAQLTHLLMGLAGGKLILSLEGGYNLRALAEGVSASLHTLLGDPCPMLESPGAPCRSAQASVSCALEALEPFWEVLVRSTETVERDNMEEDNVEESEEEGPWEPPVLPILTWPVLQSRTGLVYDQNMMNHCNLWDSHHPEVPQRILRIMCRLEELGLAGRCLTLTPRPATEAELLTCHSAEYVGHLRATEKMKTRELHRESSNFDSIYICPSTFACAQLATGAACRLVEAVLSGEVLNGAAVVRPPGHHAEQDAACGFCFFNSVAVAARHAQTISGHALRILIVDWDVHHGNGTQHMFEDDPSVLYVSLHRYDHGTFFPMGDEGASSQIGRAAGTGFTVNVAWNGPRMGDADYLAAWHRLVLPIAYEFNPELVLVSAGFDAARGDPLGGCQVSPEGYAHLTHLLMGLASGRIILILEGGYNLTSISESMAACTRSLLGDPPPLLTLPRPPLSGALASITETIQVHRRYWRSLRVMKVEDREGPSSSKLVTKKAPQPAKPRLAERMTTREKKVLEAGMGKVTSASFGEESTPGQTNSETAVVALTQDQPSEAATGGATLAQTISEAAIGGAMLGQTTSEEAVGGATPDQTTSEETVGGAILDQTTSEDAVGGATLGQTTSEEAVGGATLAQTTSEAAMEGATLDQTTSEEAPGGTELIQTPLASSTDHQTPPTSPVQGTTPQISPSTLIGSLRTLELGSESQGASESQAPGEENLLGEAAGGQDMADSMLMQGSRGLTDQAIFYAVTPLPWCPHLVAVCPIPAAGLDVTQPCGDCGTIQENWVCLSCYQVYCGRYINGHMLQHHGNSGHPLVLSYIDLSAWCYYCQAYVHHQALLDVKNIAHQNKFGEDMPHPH
The experiment in a line: HDAC6 enzyme activity inhibition assay (HDAC Fluorimetric Drug Discovery Kit). The following applies: 30° C. 60 minutes. The assay is classed as biochemical. The method, then: as §1, §2

T1 sequence (Q13547 whole entry): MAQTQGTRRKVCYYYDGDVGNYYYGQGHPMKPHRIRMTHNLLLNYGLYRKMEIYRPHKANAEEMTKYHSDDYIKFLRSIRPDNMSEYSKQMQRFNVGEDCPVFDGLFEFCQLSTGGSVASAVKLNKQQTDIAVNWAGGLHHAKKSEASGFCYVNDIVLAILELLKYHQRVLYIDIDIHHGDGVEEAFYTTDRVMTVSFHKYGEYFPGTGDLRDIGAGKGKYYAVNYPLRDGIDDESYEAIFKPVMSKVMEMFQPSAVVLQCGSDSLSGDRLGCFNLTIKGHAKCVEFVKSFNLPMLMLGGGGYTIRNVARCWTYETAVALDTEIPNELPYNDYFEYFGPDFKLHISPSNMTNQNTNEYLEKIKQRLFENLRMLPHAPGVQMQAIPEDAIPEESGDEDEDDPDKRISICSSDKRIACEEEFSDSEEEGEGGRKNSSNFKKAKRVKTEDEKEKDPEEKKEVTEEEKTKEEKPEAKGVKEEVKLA

For `FC(F)c1nnc(-c2cnc(NC3(c4ccccc4)CC3)nc2)o1` [Compound 1524, 5-(5-(difluoromethyl)-1,3,4-oxadiazol-2-yl)-N-(1-phenylcyclopropyl)pyrimidin-2-amine], the IC50 (usually the concentration at which inhibition is half-maximal) on human recombinant HDAC1 is more than 10000 nM; on human recombinant HDAC6, 48 nM.
On to `FC(F)(F)c1nnc(-c2cnc(NC3(c4ccccc4)CC3)nc2)o1` [Compound 1526, N-(1-phenylcyclopropyl)-5-(5-(trifluoromethyl)-1,3,4-oxadiazol-2-yl)pyrimidin-2-amine], for which the figures for the half-inhibitory concentration (IC50) on human recombinant HDAC1 and at human recombinant HDAC6 were more than 10000 nM and 179 nM, respectively.
As for `FC(F)c1nnc(-c2cnc(NC3(c4ccccc4)CCC3)nc2)o1` [Compound 1559, 5-(5-(difluoromethyl)-1,3,4-oxadiazol-2-yl)-N-(1-phenylcyclobutyl)pyrimidin-2-amine], the IC50 at human recombinant HDAC1 is more than 10000 nM; on human recombinant HDAC6, 30 nM.
For `FC(F)c1nnc(-c2cnc(NC3(c4ccccc4)CCCC3)nc2)o1` [Compound 1579, 5-(5-(difluoromethyl)-1,3,4-oxadiazol-2-yl)-N-(1-phenylcyclopentyl)pyrimidin-2-amine], the results for the IC50 at human recombinant HDAC1 and on human recombinant HDAC6 were more than 10000 nM and 46 nM, respectively.
`FC(F)(F)c1nnc(-c2cnc(NC3(c4ccccc4)CCCC3)nc2)o1` [Compound 1580, N-(1-phenylcyclopentyl)-5-(5-(trifluoromethyl)-1,3,4-oxadiazol-2-yl)pyrimidin-2-amine]: the half-inhibitory concentration (IC50) at human recombinant HDAC1 was more than 10000 nM; on human recombinant HDAC6 it was 305 nM.
Turning to `FC(F)c1nnc(-c2cnc(NC3(c4ccccc4)CCCCC3)nc2)o1` [Compound 1581, 5-(5-(difluoromethyl)-1,3,4-oxadiazol-2-yl)-N-(1-phenylcyclohexyl)pyrimidin-2-amine], the IC50 on human recombinant HDAC1 is more than 10000 nM; at human recombinant HDAC6, 135 nM.
`FC(F)(F)c1nnc(-c2cnc(NC3(c4ccccc4)CCCCC3)nc2)o1` [Compound 1582, N-(1-phenylcyclohexyl)-5-(5-(trifluoromethyl)-1,3,4-oxadiazol-2-yl)pyrimidin-2-amine]: the results for the 50% inhibitory concentration (IC50) at human recombinant HDAC1 and on human recombinant HDAC6 were more than 10000 nM and 1250 nM, respectively.
Consider `COc1ccc(C2(Nc3ncc(-c4nnc(C(F)F)o4)cn3)CCC2)cc1` [Compound 1603, 5-(5-(difluoromethyl)-1,3,4-oxadiazol-2-yl)-N-(1-(4-methoxyphenyl)cyclobutyl)pyrimidin-2-amine], for which the IC50 is more than 10000 nM at human recombinant HDAC1 and 50 nM at human recombinant HDAC6.
Regarding `COc1ccc(C2(Nc3ncc(-c4nnc(C(F)(F)F)o4)cn3)CCC2)cc1` [Compound 1604, N-(1-(4-methoxyphenyl)cyclobutyl)-5-(5-(trifluoromethyl)-1,3,4-oxadiazol-2-yl)pyrimidin-2-amine], the IC50 at human recombinant HDAC1 is more than 10000 nM; at human recombinant HDAC6, 204 nM.
For the compound `COc1cccc(C2(Nc3ncc(-c4nnc(C(F)F)o4)cn3)CCC2)c1` [Compound 1605, 5-(5-(difluoromethyl)-1,3,4-oxadiazol-2-yl)-N-(1-(3-methoxyphenyl)cyclobutyl)pyrimidin-2-amine], the IC50 was more than 10000 nM at human recombinant HDAC1 and 44 nM at human recombinant HDAC6.
Regarding `COc1cccc(C2(Nc3ncc(-c4nnc(C(F)(F)F)o4)cn3)CCC2)c1` [Compound 1606, N-(1-(3-methoxyphenyl)cyclobutyl)-5-(5-(trifluoromethyl)-1,3,4-oxadiazol-2-yl)pyrimidin-2-amine], the IC50 is more than 10000 nM at human recombinant HDAC1 and 168 nM at human recombinant HDAC6.
The corresponding values for `Fc1cccc(C2(Nc3ncc(-c4nnc(C(F)F)o4)cn3)CCC2)c1` [Compound 1607, 5-(5-(difluoromethyl)-1,3,4-oxadiazol-2-yl)-N-(1-(3-fluorophenyl)cyclobutyl)pyrimidin-2-amine] are more than 10000 nM and 32 nM.
In the case of `Fc1cccc(C2(Nc3ncc(-c4nnc(C(F)(F)F)o4)cn3)CCC2)c1` [Compound 1608, N-(1-(3-fluorophenyl)cyclobutyl)-5-(5-(trifluoromethyl)-1,3,4-oxadiazol-2-yl)pyrimidin-2-amine], the values for the IC50 on human recombinant HDAC1 and at human recombinant HDAC6 were more than 10000 nM and 154 nM, respectively.
With `Fc1ccccc1C1(Nc2ncc(-c3nnc(C(F)F)o3)cn2)CCC1` [Compound 1609, 5-(5-(difluoromethyl)-1,3,4-oxadiazol-2-yl)-N-(1-(2-fluorophenyl)cyclobutyl)pyrimidin-2-amine], the values for the IC50 on human recombinant HDAC1 and on human recombinant HDAC6 were more than 10000 nM and 23 nM, respectively.
As for `Fc1ccccc1C1(Nc2ncc(-c3nnc(C(F)(F)F)o3)cn2)CCC1` [Compound 1610, N-(1-(2-fluorophenyl)cyclobutyl)-5-(5-(trifluoromethyl)-1,3,4-oxadiazol-2-yl)pyrimidin-2-amine], the figures for the IC50 on human recombinant HDAC1 and at human recombinant HDAC6 were more than 10000 nM and 151 nM, respectively.
As to `Fc1ccc(C2(Nc3ncc(-c4nnc(C(F)F)o4)cn3)CCC2)cc1` [Compound 1611, 5-(5-(difluoromethyl)-1,3,4-oxadiazol-2-yl)-N-(1-(4-fluorophenyl)cyclobutyl)pyrimidin-2-amine], the figures for the concentration for half-maximal inhibition (IC50) on human recombinant HDAC1 and at human recombinant HDAC6 were more than 10000 nM and 38 nM, respectively.
As for `Fc1ccc(C2(Nc3ncc(-c4nnc(C(F)(F)F)o4)cn3)CCC2)cc1` [Compound 1612, N-(1-(4-fluorophenyl)cyclobutyl)-5-(5-(trifluoromethyl)-1,3,4-oxadiazol-2-yl)pyrimidin-2-amine], the results for the IC50 at human recombinant HDAC1 and on human recombinant HDAC6 were more than 10000 nM and 455 nM, respectively.
Take `FC(F)c1nnc(-c2cnc(NC3(c4ccccc4Cl)CCC3)nc2)o1` [Compound 1614, N-(1-(2-chlorophenyl)cyclobutyl)-5-(5-(difluoromethyl)-1,3,4-oxadiazol-2-yl)pyrimidin-2-amine]: the figures for the IC50 at human recombinant HDAC1 and at human recombinant HDAC6 were more than 10000 nM and 29 nM, respectively.
As to `FC(F)c1nnc(-c2cnc(NC3(c4cccc(Cl)c4)CCC3)nc2)o1` [Compound 1615, N-(1-(3-chlorophenyl)cyclobutyl)-5-(5-(difluoromethyl)-1,3,4-oxadiazol-2-yl)pyrimidin-2-amine], the IC50 was more than 10000 nM at human recombinant HDAC1 and 22 nM at human recombinant HDAC6.
The corresponding values for `FC(F)c1nnc(-c2cnc(NC3(c4ccc(Cl)cc4)CCC3)nc2)o1` [Compound 1616, N-(1-(4-chlorophenyl)cyclobutyl)-5-(5-(difluoromethyl)-1,3,4-oxadiazol-2-yl)pyrimidin-2-amine] are more than 10000 nM and 44 nM.
`FC(F)(F)c1nnc(-c2cnc(NC3(c4ccccc4Cl)CCC3)nc2)o1` [Compound 1617, N-(1-(2-chlorophenyl)cyclobutyl)-5-(5-(trifluoromethyl)-1,3,4-oxadiazol-2-yl)pyrimidin-2-amine]: the IC50 at human recombinant HDAC1 was more than 10000 nM; on human recombinant HDAC6 it was 211 nM.
For the compound `FC(F)(F)c1nnc(-c2cnc(NC3(c4ccc(Cl)cc4)CCC3)nc2)o1` [Compound 1618, N-(1-(4-chlorophenyl)cyclobutyl)-5-(5-(trifluoromethyl)-1,3,4-oxadiazol-2-yl)pyrimidin-2-amine], the IC50 at human recombinant HDAC1 was more than 10000 nM; on human recombinant HDAC6 it was 267 nM.
On to `FC(F)c1nnc(-c2cnc(NC3(c4ccccn4)CCC3)nc2)o1` [Compound 1640, 5-(5-(difluoromethyl)-1,3,4-oxadiazol-2-yl)-N-(1-(pyridin-2-yl)cyclobutyl)pyrimidin-2-amine], for which the concentration for half-maximal inhibition (IC50) on human recombinant HDAC1 is more than 10000 nM; at human recombinant HDAC6, 28 nM.
Consider `Fc1ccc(C2(Nc3ncc(-c4nnc(C(F)F)o4)cn3)CC2)cc1F` [Compound 1779, 5-(5-(difluoromethyl)-1,3,4-oxadiazol-2-yl)-N-(1-(3,4-difluorophenyl)cyclopropyl)pyrimidin-2-amine], for which, at human recombinant HDAC6, the IC50 was 134 nM.

Values taken from US10494355B2, “Oxadiazole amine derivative compounds as histone deacetylase 6 inhibitor, and the pharmaceutical composition comprising the same” (Chong Kun Dang Pharmaceutical Corp., priority 2015, dated 2019).
